In ChEMBL document CHEMBL3867475, “Discovery of furo[2,3-d][1,3]thiazinamines as beta amyloid cleaving enzyme-1 (BACE1) inhibitors” (Bioorg Med Chem Lett, 2016):

What was measured:
[1] = Chemical stability of compound in aqueous condition at pH 1 to 10 at 40 degC measured up to 24 hrs; format: physicochemical; conditions: buffer, pH 1, 24 h
[2] = Permeability from apical side to basolateral side in human Caco2 cells; format: ADME, cell-based; conditions: Caco-2, read-out: permeability
[3] = Permeability from basolateral side to apical side in human Caco2 cells; format: ADME, cell-based; conditions: Caco-2, read-out: permeability

SMILES | Stability [1] | Papp A→B [2] | Papp B→A [3]
NC1=N[C@@]2(c3cc(NC(=O)c4ncccc4F)ccc3F)OCC[C@H]2CS1 | Stable |  | 
NC1=N[C@@]2(c3cc(NC(=O)c4ccccn4)ccc3F)OCC[C@H]2CS1 | Stable |  | 
NC1=N[C@@]2(c3cc(NC(=O)c4ncc(Cl)cc4Cl)ccc3F)OCC[C@H]2CS1 | Stable |  | 
NC1=N[C@@]2(c3cc(NC(=O)c4ccc(OC(F)F)cn4)ccc3F)OCC[C@H]2CS1 | Stable |  | 
COc1cnc(C(=O)Nc2ccc(F)c([C@@]34N=C(N)SC[C@@H]3CCO4)c2)cn1 | Stable |  | 

Second part, the compound after the results:

Stability [1] | Papp A→B [2] | Papp B→A [3] | SMILES
Stable | 17.7 ×10⁻⁶ cm/s | 24.4 ×10⁻⁶ cm/s | NC1=N[C@@]2(c3cc(NC(=O)c4ccc(Cl)cn4)ccc3F)OCC[C@H]2CS1
Stable |  |  | NC1=N[C@@]2(c3cc(NC(=O)c4ccc(Br)cn4)ccc3F)OCC[C@H]2CS1
Stable |  |  | NC1=N[C@@]2(c3cc(NC(=O)c4ccc(F)cn4)ccc3F)OCC[C@H]2CS1
Stable | 16.4 ×10⁻⁶ cm/s | 54.2 ×10⁻⁶ cm/s | N#Cc1ccc(C(=O)Nc2ccc(F)c([C@@]34N=C(N)SC[C@@H]3CCO4)c2)nc1
